The record followed here is ChEMBL document CHEMBL1201862, “PubChem BioAssay data set” (2004).

Active and inactive are the calls of the source.

Assay [1] is described as follows: THP-1 cell cytotoxicity, dose response, cytotoxicity control for non-replicating M. tuberculosis project (AID 489025). It is filed as functional.
The nature of assay [2]: viability of HCT116 lacking mutant beta-catenin – cell-based, human colon tumor, dose response (AID 1045).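 Note: HCT116 colon tumor cells with beta catenin knocked out; cells exposed to compound for 60 hours.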 It is filed as functional.
Assay [3] has as its system Streptococcus sp. 'group A'. The assay is described as follows: Streptococcus pyogenes SK(-)GAS viability under kanamycin – luminescence, BacTiterGlo, confirmation, counter-screen for streptokinase expression inhibitor project, dose response (AID 1900). It is filed as functional, organism-based.
Assay [4] deals with Streptococcus. The assay is described as follows: GAS UMAA2166 growth inhibition – luminescence, BacTiterGlo, counter-screen for streptokinase expression inhibitor project, dose response (AID 1915).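 Note: potency for reduction of bacterial viability or growth.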 The class given is functional, organism-based.
A short description of assay [5]: cells. The class given is functional.
The target in assay [6] is Cyclin-dependent kinase 8 (Homo sapiens, UniProt P49336). The assay is described as follows: Navigating the Kinome. Panel member name: CDK8. It is filed as functional.
Assay [7] deals with Proto-oncogene tyrosine-protein kinase receptor Ret (Homo sapiens, UniProt P07949). The class given is functional.
In assay [8] the target is Tyrosine-protein kinase Fyn (Homo sapiens, UniProt P06241). The class given is functional.
The target of assay [9] is Dual specificity mitogen-activated protein kinase kinase 2 (Homo sapiens, UniProt P36507). The assay can be described thus: Navigating the Kinome. Panel member name: MAP2K2. It is filed as functional.
In assay [10] the target is Dual specificity tyrosine-phosphorylation-regulated kinase 1A (Homo sapiens, UniProt Q13627). The class given is functional.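 Note: measured against DYRK1A as one member of a broad kinome profiling panel.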
Assay [11] addresses T1, Activin receptor type-1 (Homo sapiens, UniProt Q04771).
T1 sequence (Q04771 whole entry): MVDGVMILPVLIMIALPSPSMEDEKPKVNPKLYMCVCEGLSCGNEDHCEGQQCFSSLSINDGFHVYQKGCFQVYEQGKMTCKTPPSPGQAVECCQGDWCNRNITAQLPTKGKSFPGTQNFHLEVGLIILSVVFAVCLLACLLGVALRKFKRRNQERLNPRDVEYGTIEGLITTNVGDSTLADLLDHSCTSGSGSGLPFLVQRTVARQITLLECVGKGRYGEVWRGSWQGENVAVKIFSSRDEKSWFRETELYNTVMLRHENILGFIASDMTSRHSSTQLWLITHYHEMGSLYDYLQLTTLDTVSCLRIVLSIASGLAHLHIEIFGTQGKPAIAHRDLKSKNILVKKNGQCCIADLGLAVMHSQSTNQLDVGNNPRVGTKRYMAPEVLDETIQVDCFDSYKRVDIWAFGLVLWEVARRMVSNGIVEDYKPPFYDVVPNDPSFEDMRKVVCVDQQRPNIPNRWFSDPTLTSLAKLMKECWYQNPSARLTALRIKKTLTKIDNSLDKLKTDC
The assay is described as follows: Navigating the Kinome. Panel member name: ACVR1. It is filed as functional.

Assay [12] concerns the target Macrophage colony-stimulating factor 1 receptor (Homo sapiens, UniProt P07333). It is filed as functional.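 Note: value comes from the Navigating the Kinome screening panel, CSF1R member.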
The target of assay [13] is Leucine-rich repeat serine/threonine-protein kinase 2 (Homo sapiens, UniProt Q5S007). It is filed as functional.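 Note: value from a broad kinome-wide panel profiling study in which LRRK2 was one of the kinases tested.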
Assay [14] has as its target Platelet-derived growth factor receptor alpha (Homo sapiens, UniProt P16234). The assay is described as follows: Navigating the Kinome. Panel member name: PDGFRA. The class given is functional.
The target in assay [15] is Aurora kinase B (Homo sapiens, UniProt Q96GD4). The class given is functional.
Assay [16] concerns the target Mitogen-activated protein kinase kinase kinase kinase 4 (Homo sapiens, UniProt O95819). The class given is functional.
In assay [17] the target is Glycogen synthase kinase-3 alpha (Homo sapiens, UniProt P49840). The class given is functional.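 Note: GSK3A result taken from a broad kinome-wide kinase panel.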
Assay [18] deals with Tyrosine-protein kinase BTK (Homo sapiens, UniProt Q06187). The class given is functional.
The target of assay [19] is ALK tyrosine kinase receptor (Homo sapiens, UniProt Q9UM73). It is filed as functional.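 Note: ALK tested as one member of a kinase panel screen.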
The target of assay [20] is Death-associated protein kinase 3 (Homo sapiens, UniProt O43293). The class given is functional.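 Note: measured as one member of a kinome-wide profiling panel.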
The target in assay [21] is Dual specificity mitogen-activated protein kinase kinase 1 (Homo sapiens, UniProt Q02750). The assay can be described thus: Navigating the Kinome. Panel member name: MAP2K1. The class given is functional.
Assay [22] has as its target T2, Inhibitor of nuclear factor kappa-B kinase subunit epsilon (Homo sapiens, UniProt Q14164).
T2 sequence (Q14164 whole entry): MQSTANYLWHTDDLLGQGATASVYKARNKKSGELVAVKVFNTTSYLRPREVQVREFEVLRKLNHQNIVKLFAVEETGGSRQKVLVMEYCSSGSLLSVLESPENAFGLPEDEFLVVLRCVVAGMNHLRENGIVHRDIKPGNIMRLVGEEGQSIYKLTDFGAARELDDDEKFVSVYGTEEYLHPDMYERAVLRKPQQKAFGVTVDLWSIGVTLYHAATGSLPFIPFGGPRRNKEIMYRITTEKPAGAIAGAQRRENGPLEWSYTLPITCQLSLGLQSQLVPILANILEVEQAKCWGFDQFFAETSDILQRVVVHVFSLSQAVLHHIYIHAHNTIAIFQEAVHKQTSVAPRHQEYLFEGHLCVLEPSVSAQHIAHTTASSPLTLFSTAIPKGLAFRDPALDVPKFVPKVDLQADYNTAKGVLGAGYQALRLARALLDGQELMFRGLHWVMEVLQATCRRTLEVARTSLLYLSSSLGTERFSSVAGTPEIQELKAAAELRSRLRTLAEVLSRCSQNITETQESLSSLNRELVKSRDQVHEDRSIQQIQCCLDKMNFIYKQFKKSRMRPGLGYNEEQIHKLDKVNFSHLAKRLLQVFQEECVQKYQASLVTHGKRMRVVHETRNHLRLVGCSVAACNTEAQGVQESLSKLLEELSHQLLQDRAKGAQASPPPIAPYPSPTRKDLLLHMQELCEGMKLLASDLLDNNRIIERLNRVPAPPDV
The assay can be described thus: Navigating the Kinome. Panel member name: IKBKE. The class given is functional.

The target of assay [23] is Serine/threonine-protein kinase pim-1 (Homo sapiens, UniProt P11309). It is filed as functional.
Assay [24] addresses Vascular endothelial growth factor receptor 1 (Homo sapiens, UniProt P17948). The class given is functional.
Assay [25] deals with Mitogen-activated protein kinase 8 (Homo sapiens, UniProt P45983). It is filed as functional.
Assay [26] concerns the target Dual specificity protein kinase CLK4 (Homo sapiens, UniProt Q9HAZ1). It is filed as functional.
For assay [27], the target named is Tyrosine-protein kinase JAK2 (Homo sapiens, UniProt O60674). It is filed as functional.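 Note: JAK2 tested as one member of a kinase panel.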
Assay [28] has as its target Macrophage-stimulating protein receptor (Homo sapiens, UniProt Q04912). The assay is described as follows: Navigating the Kinome. Panel member name: MST1R. The class given is functional.

Chain of Proto-oncogene tyrosine-protein kinase receptor Ret (P07949 whole entry): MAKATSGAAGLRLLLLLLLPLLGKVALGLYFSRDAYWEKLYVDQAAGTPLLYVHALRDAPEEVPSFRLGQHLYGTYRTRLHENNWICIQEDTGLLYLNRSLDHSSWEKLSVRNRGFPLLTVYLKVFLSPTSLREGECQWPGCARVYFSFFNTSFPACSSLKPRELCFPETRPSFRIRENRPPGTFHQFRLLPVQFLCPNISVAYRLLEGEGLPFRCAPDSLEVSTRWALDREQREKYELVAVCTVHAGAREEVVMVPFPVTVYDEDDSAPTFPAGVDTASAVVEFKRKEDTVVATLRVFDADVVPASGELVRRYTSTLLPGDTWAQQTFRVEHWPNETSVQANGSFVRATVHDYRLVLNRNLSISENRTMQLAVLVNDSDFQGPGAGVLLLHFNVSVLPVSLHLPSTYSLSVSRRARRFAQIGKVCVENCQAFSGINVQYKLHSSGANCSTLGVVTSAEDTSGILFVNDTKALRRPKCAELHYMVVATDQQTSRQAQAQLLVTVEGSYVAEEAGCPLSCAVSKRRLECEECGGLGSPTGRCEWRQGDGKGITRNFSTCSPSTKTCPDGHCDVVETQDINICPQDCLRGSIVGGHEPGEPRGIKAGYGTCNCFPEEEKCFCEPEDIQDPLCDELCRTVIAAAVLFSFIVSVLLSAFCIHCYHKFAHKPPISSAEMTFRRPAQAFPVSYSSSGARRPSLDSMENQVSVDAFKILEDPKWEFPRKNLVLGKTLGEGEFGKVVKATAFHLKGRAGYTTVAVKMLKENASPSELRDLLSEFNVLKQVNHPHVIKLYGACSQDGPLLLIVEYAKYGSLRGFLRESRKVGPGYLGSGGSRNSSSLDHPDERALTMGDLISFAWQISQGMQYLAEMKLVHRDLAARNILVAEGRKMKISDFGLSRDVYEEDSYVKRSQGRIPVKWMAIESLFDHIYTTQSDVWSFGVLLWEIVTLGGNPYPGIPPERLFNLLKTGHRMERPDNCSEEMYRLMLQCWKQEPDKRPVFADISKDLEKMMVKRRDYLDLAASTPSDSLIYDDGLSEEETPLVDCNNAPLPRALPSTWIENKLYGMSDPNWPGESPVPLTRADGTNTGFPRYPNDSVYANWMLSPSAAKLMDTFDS
Chain of Platelet-derived growth factor receptor alpha (P16234 whole entry): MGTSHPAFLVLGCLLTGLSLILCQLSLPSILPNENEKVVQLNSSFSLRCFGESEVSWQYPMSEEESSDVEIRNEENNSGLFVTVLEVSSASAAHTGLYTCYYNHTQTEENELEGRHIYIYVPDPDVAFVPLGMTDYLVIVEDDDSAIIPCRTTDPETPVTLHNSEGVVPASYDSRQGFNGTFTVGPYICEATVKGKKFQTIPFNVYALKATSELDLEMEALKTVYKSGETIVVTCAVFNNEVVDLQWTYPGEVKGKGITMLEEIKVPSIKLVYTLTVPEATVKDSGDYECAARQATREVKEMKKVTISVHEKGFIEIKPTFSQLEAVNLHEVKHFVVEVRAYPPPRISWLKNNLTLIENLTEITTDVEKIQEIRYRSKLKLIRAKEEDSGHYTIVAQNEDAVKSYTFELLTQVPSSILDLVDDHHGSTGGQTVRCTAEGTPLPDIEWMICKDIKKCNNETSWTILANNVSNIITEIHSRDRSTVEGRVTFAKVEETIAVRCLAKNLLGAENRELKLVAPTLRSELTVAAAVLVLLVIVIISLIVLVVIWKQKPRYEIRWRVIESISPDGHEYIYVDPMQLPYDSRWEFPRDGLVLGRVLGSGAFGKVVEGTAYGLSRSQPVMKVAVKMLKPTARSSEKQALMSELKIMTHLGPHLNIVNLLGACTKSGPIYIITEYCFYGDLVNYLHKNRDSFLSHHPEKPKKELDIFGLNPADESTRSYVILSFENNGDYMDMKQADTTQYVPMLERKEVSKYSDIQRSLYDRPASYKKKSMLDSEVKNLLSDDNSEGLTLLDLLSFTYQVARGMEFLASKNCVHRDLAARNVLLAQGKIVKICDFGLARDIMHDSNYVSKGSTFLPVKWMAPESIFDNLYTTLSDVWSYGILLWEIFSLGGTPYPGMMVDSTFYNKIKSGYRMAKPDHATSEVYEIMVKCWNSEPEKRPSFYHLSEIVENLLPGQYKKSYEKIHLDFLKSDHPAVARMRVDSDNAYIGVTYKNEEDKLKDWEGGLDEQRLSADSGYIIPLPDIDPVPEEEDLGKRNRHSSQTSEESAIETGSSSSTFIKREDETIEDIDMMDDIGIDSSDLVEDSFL
Chain of Serine/threonine-protein kinase pim-1 (P11309 whole entry): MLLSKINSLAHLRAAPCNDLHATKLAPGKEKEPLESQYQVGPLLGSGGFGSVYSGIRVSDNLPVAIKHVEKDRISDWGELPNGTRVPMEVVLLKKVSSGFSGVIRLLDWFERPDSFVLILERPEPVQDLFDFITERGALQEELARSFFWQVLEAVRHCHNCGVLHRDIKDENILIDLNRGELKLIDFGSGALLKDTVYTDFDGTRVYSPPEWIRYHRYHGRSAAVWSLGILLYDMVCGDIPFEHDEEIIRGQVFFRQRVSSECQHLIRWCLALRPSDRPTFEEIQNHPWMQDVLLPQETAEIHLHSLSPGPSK
Chain of Aurora kinase B (Q96GD4 whole entry): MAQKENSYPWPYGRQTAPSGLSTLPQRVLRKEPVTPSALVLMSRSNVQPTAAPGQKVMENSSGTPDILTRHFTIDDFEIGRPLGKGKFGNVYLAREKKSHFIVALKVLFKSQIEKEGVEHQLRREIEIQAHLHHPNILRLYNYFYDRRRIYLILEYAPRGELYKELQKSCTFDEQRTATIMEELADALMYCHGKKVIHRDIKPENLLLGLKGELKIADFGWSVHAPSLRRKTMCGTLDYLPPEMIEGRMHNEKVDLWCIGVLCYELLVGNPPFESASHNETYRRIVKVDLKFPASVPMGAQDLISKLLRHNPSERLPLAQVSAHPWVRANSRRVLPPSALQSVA
Chain of Dual specificity mitogen-activated protein kinase kinase 2 (P36507 whole entry): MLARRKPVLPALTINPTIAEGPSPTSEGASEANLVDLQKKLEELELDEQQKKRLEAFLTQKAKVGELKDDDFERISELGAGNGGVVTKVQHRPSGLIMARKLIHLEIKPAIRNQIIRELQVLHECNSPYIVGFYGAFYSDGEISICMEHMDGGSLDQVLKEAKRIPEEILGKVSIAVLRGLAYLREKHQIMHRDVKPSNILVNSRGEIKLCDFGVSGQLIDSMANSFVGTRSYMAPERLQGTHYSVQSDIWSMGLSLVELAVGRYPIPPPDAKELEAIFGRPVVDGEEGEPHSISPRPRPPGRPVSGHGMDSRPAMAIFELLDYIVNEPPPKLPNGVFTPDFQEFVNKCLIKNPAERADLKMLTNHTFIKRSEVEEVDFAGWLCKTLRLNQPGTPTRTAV
Chain of Death-associated protein kinase 3 (O43293 whole entry): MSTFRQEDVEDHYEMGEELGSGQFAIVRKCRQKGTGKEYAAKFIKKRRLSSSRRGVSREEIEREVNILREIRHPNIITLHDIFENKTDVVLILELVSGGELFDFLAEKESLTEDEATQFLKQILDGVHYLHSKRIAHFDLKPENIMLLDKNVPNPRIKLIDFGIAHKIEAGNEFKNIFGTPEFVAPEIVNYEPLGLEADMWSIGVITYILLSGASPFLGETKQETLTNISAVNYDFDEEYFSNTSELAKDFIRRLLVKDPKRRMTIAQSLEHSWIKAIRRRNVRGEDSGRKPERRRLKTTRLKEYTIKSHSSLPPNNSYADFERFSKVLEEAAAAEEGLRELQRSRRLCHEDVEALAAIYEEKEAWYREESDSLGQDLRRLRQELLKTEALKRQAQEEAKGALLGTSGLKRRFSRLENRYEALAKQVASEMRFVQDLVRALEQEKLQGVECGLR
Chain of Mitogen-activated protein kinase kinase kinase kinase 4 (O95819 whole entry): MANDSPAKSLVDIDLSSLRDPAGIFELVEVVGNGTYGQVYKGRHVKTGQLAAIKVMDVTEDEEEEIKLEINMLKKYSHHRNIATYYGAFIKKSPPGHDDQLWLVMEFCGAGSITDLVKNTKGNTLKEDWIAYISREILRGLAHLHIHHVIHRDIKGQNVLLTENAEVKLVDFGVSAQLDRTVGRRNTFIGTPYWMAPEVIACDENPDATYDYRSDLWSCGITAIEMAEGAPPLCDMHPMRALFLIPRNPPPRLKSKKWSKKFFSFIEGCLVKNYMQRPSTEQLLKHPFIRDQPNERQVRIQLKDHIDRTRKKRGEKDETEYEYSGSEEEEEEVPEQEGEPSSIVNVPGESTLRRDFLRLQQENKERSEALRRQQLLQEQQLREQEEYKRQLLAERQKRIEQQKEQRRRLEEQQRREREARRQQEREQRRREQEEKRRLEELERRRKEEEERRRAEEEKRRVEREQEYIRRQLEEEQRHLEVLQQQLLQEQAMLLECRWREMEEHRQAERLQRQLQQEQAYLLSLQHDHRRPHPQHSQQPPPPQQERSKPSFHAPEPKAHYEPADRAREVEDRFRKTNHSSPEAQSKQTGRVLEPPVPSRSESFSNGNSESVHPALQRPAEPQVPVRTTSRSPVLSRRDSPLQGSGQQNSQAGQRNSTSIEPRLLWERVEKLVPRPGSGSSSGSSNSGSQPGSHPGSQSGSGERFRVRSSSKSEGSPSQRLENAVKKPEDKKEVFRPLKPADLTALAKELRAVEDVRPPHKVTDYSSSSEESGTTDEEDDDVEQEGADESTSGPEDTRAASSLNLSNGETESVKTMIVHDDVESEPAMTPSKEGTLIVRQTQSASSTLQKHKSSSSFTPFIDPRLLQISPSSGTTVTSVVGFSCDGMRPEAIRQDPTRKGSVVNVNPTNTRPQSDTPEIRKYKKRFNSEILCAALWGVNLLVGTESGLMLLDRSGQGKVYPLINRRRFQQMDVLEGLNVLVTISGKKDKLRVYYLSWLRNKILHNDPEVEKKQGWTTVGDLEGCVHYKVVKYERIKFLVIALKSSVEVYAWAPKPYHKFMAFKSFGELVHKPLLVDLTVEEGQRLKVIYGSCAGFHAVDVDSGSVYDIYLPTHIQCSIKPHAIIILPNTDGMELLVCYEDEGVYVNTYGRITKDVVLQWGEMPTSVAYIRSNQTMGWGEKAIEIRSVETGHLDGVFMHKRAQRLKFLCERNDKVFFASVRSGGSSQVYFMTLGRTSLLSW

As to `CCOC(=O)c1ccc(NC2=CC(=O)C(=O)c3ccccc32)cc1`, the CC50 in assay [1] was 15.2 µM (active). Further, the EC50 in assay [2] was 13.8 µM (active); in [3], 2.3 µM (active); in assay [4] it was 9.24 µM (active). In addition, the IC50 in [5] is 19.2 µM (active).
On to `OC(CNCCC1C=Nc2ccccc21)Cn1c2ccc(Cl)cc2c2cc(Cl)ccc21` (stereo unspecified), for which the EC50 in assay [2] is 2.7 µM (active).
Take `CCCCCCCCCCCCCCCC[N+](C)(C)C`: the EC50 in [3] was 2.06 µM (active); in [4] it was 7.77 µM (active).
For the compound `NC1CCC(Nc2nc(Cl)cc(-c3c[nH]c4ncccc34)n2)CC1` (stereo unspecified), the Ki was 5.01 nM (active) in assay [6]; 2 µM (active) in [7]; > 6.31 µM (inactive) in [8]; 31.6 nM (active) in assay [9]; 25.1 nM (active) in assay [10]; 631 nM (active) in [11]. Further, the Ki in assay [12] is 126 nM (active); in assay [13], 2 nM (active); in assay [14], 1.26 µM (active); in [15], 251 nM (active); in assay [16] it was 20 nM (active); in [17], 398 nM (active). Also, the Ki in assay [18] is > 6.31 µM (inactive); in [19] it was 0.631 µM (active); in [20], 50.1 nM (active); in assay [21], 20 nM (active); in [22] it was 2.51 µM (active); in [23], 0.126 µM (active). The Ki in assay [24] is > 3.98 µM (inactive); in [25], 1.26 µM (active); in assay [26] it was 1 nM (active); in [27], 794 nM (active); in assay [28], 63.1 nM (active). The pKi was found to be 8.3 in [6]; 5.7 in assay [7]; 7.5 in assay [9]; 7.6 in assay [10]; 6.2 in [11]; 6.9 in assay [12]. Further, the pKi came out at 8.7 in [13]; 5.9 in assay [14]; 6.6 in [15]; 7.7 in [16]; 6.4 in [17]; 6.2 in assay [19]. In addition, the pKi in assay [20] was 7.3; in [21], 7.7; in [22] it was 5.6; in assay [23], 6.9; in assay [25] it was 5.9; in [26] it was 9. Further, the pKi in [27] turned out to be 6.1; in [28] it was 7.2.
`O=C(O)C1CN(Cc2ccc(OCc3ccccc3)cc2Cl)C1`: the Ki is > 3980 nM (inactive) in assay [6]; > 3.16 µM (inactive) in [7]; > 6.31 µM (inactive) in assay [8]; > 3980 nM (inactive) in assay [9]; > 2000 nM (inactive) in assay [10]; 126 nM (active) in assay [11]. For the same compound, the Ki is > 2510 nM (inactive) in assay [12]; > 2510 nM (inactive) in assay [13]; > 2.51 µM (inactive) in assay [14]; > 3980 nM (inactive) in [15]; > 5010 nM (inactive) in assay [16]; > 3980 nM (inactive) in assay [17]. Besides, the Ki in [18] is > 6.31 µM (inactive); in [19] it was > 6.31 µM (inactive); in assay [20], > 5010 nM (inactive); in assay [21], > 3160 nM (inactive); in assay [22] it was > 3.16 µM (inactive); in [23] it was > 6.31 µM (inactive). Moreover, the Ki in [24] was > 3.98 µM (inactive); in [25] it was > 5.01 µM (inactive); in [26] it was > 2510 nM (inactive); in assay [27], > 2510 nM (inactive); in assay [28], > 3980 nM (inactive).
`Cc1ccccc1-c1cc2c(nn1)-c1ccccc1C2=O`: the CC50 in assay [1] was 36.2 µM (active). Moreover, in assay [5], the IC50 is 14.7 µM (active).
